Ki data for two compounds are collected here from BindingDB's records for doi:10.1124/jpet.103.051797 (Institut De Recherches Servier, 2003).

For orientation: Ki means a dissociation constant, usually derived from enzyme kinetics or from competition with a known ligand.

In test [1] the target is T1, 5-hydroxytryptamine receptor 2C (Sus scrofa, UniProt K7GSR7).
T1 sequence (K7GSR7 whole entry): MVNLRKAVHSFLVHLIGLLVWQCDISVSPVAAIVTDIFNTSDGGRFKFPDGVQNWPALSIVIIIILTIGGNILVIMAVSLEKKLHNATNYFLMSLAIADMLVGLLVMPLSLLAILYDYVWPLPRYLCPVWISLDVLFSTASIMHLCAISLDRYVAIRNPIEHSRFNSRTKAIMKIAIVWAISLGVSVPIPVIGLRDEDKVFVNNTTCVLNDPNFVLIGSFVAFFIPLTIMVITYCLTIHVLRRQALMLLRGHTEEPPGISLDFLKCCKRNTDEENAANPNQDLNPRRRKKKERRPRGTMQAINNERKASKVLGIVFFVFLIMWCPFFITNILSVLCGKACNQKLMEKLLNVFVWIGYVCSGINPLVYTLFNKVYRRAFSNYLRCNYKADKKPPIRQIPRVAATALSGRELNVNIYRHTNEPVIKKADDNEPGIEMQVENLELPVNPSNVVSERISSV

The target in test [2] is 5-hydroxytryptamine receptor 2A (Rattus norvegicus, UniProt P14842).
Sequence of 5-hydroxytryptamine receptor 2A (P14842 whole entry): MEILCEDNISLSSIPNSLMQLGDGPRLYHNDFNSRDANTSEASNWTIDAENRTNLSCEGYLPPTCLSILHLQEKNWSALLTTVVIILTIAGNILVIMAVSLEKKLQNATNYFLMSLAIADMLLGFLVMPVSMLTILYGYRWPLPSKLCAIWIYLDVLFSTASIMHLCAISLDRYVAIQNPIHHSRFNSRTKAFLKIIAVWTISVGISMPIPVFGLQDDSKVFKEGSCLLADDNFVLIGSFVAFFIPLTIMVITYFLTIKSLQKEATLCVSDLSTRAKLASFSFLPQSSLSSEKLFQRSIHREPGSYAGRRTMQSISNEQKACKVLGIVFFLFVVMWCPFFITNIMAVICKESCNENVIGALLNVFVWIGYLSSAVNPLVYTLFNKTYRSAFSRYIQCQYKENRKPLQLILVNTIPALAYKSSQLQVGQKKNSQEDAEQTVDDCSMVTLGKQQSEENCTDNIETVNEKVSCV
The target in test [3] is 5-hydroxytryptamine receptor 2B (Homo sapiens, UniProt P41595).
Sequence of 5-hydroxytryptamine receptor 2B (P41595 whole entry): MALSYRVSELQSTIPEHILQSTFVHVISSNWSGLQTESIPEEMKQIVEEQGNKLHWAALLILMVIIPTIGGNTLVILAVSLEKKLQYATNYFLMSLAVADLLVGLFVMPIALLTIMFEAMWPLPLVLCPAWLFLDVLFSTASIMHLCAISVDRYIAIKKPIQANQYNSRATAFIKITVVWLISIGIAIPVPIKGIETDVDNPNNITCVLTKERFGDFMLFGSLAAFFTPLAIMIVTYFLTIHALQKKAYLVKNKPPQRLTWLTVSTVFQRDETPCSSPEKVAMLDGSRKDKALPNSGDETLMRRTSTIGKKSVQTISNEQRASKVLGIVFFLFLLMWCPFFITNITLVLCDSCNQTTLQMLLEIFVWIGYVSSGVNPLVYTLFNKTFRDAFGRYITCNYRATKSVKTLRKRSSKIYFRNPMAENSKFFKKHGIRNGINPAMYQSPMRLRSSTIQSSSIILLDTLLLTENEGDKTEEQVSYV

`COc1ccc2[nH]cc(CCNC(C)=O)c2c1`: the inhibition constant (Ki) in test [1] and in test [2] was above 10000 nM each time.
On to `COc1ccc2cccc(CCNC(C)=O)c2c1` [S 20098], for which the Ki in test [1] was 407 nM; in test [3], 257 nM; in test [2] it was above 10000 nM.
